Reference: PMC8533299, “Synthesis, In Silico Study, and Anti-Cancer Activity of Thiosemicarbazone Derivatives” (Biomedicines, 2021)
≈ marks a conversion by molar mass, not a printed value. Where “and” joins values, the source holds several entries; their conditions need not be identical. Equal values may be shown once.

How the values were obtained:
[1] = MTT cytotoxicity test on NIH-3T3 cells; format: cell-based, Mouse; details: mouse, NIH/3T3 fibroblast cells
Method: (§1) The in vitro anticancer activities of the synthesized compounds were conducted using different cancerous and non-cancerous cell lines viz B16-F0 (Mouse melanoma), mouse Ehrlich Ascites Carcinoma (EAC), MCF-7 (Human breast cancer), MCF-10A (Human breast epithelial cells), and NIH/3T3 (Mouse fibroblast cells). All cell lines were procured from the National Centre for Cell Science, Pune, India. The procured cells were cultured in a six-well culture plate with Dulbecco’s Modified Eagle’s Medium (DMEM) supplemented with 10% fetal bovine serum in a humid CO2 incubator with 5% carbon dioxide at 37 °C.
(§2) The anti-cancer effect and cytotoxicity of both 3-MBTSc and 4-NBTSc compounds were evaluated against different cancerous (MCF-7, EAC, B16-F0 cells) and noncancerous cells (MCF-10A, NIH-3T3 cells) using MTT test. In brief, the stock solutions of both the tested compounds were prepared by dissolving 1 mg of each compound in 1 mL of DMSO separately. Then, four different concentrations (5, 10, 12, and 20 µg/mL) of both compounds were used during the test along with the negative control. Also, 10 μg/mL of doxorubicin (Dox) was used as the positive control during the experiment. Both untreated and treated cells were incubated for next 24 and 48 h. Then, all the steps during the whole experiment were carried out by our earlier reported procedure. Later, the absorbance values were measured by an ELISA reader (Biorad, Hercules, CA, USA) at 570 nm wavelength using secondary wavelength as a reference at 620 nm and the percentages of cell viability was calculated using the following formula [59, 60, 61]. Cell viability (%)= Mean absorbance of treated cells/Mean absorbance of untreated cells × 100

[2] = test system: gene expression in MCF-7 human breast cancer cells; assay: RT-qPCR gene expression in MCF-7 cells; format: cell-based; details: for BCl2 Treated (RQ value) / BRCA1 Treated (RQ value) / BRCA2 Treated (RQ value) / Bax Treated (RQ value) / Caspase-3 Treated (RQ value) / Dmp1 Treated (RQ value) / ER Treated (RQ value) / Hdm2 Treated (RQ value) / Myc Treated (RQ value) / PKC Treated (RQ value) / PR Treated (RQ value) / PTEN Treated (RQ value) / RAS Treated (RQ value) / p19 Arf Treated (RQ value) / p21 Treated (RQ value) / p53 Treated (RQ value) / pRB Treated (RQ value): MCF-7 cells treated, GAPDH housekeeping gene
Method: Total mRNA was isolated and extracted by Trizol reagent as described in an earlier method. RevertAid First Strand cDNA synthesis kit (Thermo Fisher Scientific, Waltham, MA, USA) was used to synthesize cDNA in a total reaction volume of 20 μL containing oligo-dT primers, RiboLock RNase inhibitor, and reverse transcriptase. Gene-specific primers were used to amplify cDNAs in RT-qPCR machine (Applied Biosystems, Waltham, MA, USA).

[3] = Solubility of the obtained compound in solvents; format: physicochemical
Method: 3-Methoxybenzaldehyde thiosemicarbazone (C9H11N3OS; (2E)-2-(3-methoxybenzylidene) hydrazine carbothioamide) (3MBTSc) was prepared by using the previous procedure with slight modifications. It was prepared by refluxing a mixture of thiosemicarbazide ([…], 0.01 mmol) and 3-Methoxybenzaldehyde (2.67 mL, 0.01 mmol) in a mixture of 20 mL distilled water and 20 mL methanol as the solvent medium in the presence of glacial acetic acid (2–3 mL). The reaction mixture was refluxed for about 3–4 h. After cooling, the yellow crystalline solid separated was filtered, washed, and dried. The yield of the compound was 2.16 g and the obtained compound was insoluble in CHCl3, CCl4, CH3CN, H2O, ethanol, and methanol but it was soluble in DMSO and DHF/THF. The following characterization was carried out to confirm the synthesis of 3-Methoxybenzaldehyde thiosemicarbazone by FTIR (cm^−1): v(NH2) 3403s; 3287s; v(-NH) 3150s; 1599s v(C=N); v(C=S) 1246s, 836s, ^1H-NMR (DMSO-d^6, ppm): 11.40 (s, 1H); 8.19 (s, 2H); 6.95–7.44 (m, ar-H); 3.80 (s, 3H), and ^13C-NMR (DMSO-d^6, ppm): 178.9 (s, C=S), 55.76 (s, OCH3), 111-143 (m-Ph-C), 159.6 (s, C=N).
4-Nitrobenzaldehyde thiosemicarbazone ((2E)-2-(4-nitrobenzylidene) hydrazine carbothioamide) (4NBTSc) was synthesized using earlier reported methods with slight modifications. A mixture of 1.51 g (0.01 mmol) of 4-Nitrobenzaldehyde, and 0.914 g (0.01 mmol) thiosemicarbazide was stirred for 2 h using 15 mL of methanol and 15 mL of distilled water as a solvent medium. The resulting yellow solution was allowed to cool. Then, a yellow crystalline solid separated was filtered, washed with diethyl ether and dried. The yield of the compound was 2.30 g and the obtained compound was insoluble in CHCl3, CCl4, CH3CN, H2O, ethanol, and methanol but it was soluble in DMSO and DHF/THF. The following characterization was carried out to confirm the synthesis of 4-Nitrobenzaldehyde thiosemicarbazone by FTIR (cm^−1): v(NH2) 3499m; 3373s; v(-NH) 3197s; 1588s; 1343s (v(NO2); v(C=N); v(C=S) 1137s, 750s, ^1H-NMR (DMSO-d^6, ppm): 11.66 (s, 1H); 8.38 (s, 2H); 8.32–8.03 (m, ar-H), and ^13C-NMR (DMSO-d^6, ppm): 179 (s, C=S), 128-141 (m-Ph-C), 148.06(s, C=N), 124.23 (s, CH).

[4] = test system: MCF-7 (Human breast cancer); assay: MTT test on MCF-7 cells; format: cell-based; details: MCF7, till 48 h
Method: as §1, §2
(§3) Based on the cell viability data, the IC50 values of both compounds were calculated on different cancer cells by plotting their corresponding dose-responsive graphs.
The obtained data were statistically analyzed. The descriptive analysis was done and the IC50 values were calculated by fitting the sigmoidal dose responsive graph using GraphPad Prism (GraphPad Software, Inc., La Jolla, CA, USA). […]

[5] = test system: MCF-7, EAC, B16-F0 cells; assay: MTT test, cancer cell lines overall; format: cell-based; details: over the cell lines tested; read-out: IC50 (range over treated cells)
Method: as §1
The anti-cancer effect and cytotoxicity of both 3-MBTSc and 4-NBTSc compounds were evaluated against different cancerous (MCF-7, EAC, B16-F0 cells) and noncancerous cells (MCF-10A, NIH-3T3 cells) using MTT test. […] Later, the absorbance values were measured by an ELISA reader (Biorad, Hercules, CA, USA) at 570 nm wavelength using secondary wavelength as a reference at 620 nm and the percentages of cell viability was calculated using the following formula [59, 60, 61]. Cell viability (%)= Mean absorbance of treated cells/Mean absorbance of untreated cells × 100
as §3
The obtained data were statistically analyzed. […]

[6] = MCF-7 cells, difference of RQ values

Row | Compound | viability at 48 h [1] [%] | BCl2 Treated (RQ value) [2] | BRCA1 Treated (RQ value) [2] | BRCA2 Treated (RQ value) [2] | Bax Treated (RQ value) [2] | Caspase-3 Treated (RQ value) [2] | Dmp1 Treated (RQ value) [2] | ER Treated (RQ value) [2] | Hdm2 Treated (RQ value) [2] | Myc Treated (RQ value) [2] | PKC Treated (RQ value) [2] | PR Treated (RQ value) [2] | PTEN Treated (RQ value) [2] | RAS Treated (RQ value) [2] | p19 Arf Treated (RQ value) [2] | p21 Treated (RQ value) [2] | p53 Treated (RQ value) [2] | pRB Treated (RQ value) [2] | BCl2 Fold Change (MCF 7 treated-MCF 7 untreated) [2, 6] [fold] | BRCA1 Fold Change (MCF 7 treated-MCF 7 untreated) [2, 6] [fold] | other results
1 | COc1cccc(C=NNC(N)=S)c1 [3-MBTSc, 3-Methoxybenzaldehyde thiosemicarbazone] | > 80 | 2.375 ± 0.025 | 7.13 ± 0.01 | 1.235 ± 0.005 | 2.125 ± 0.025 | 2.13 ± 0.01 | 2.1 ± 0.03 | 3.15 ± 0.03 | 5.26 ± 0.045 | 3.43 ± 0.015 | 5.455 ± 0.015 | 1.23 ± 0.02 | 3.78 ± 0.02 | 3.905 ± 0.035 | 4.575 ± 0.055 | 3.125 ± 0.025 | 5.185 ± 0.015 | 3.11 ± 0.01 | 0.285 | 5.33 | BRCA2 Fold Change (MCF 7 treated-MCF 7 untreated) [2, 6]: -0.7 fold; Bax Fold Change (MCF 7 treated-MCF 7 untreated) [2, 6]: 1.4 fold; Caspase-3 Fold Change (MCF 7 treated-MCF 7 untreated) [2, 6]: 1.53 fold; Hdm2 Fold Change (MCF 7 treated-MCF 7 untreated) [2, 6]: -1.98 fold; Myc Fold Change (MCF 7 treated-MCF 7 untreated) [2, 6]: -4.02 fold; PKC Fold Change (MCF 7 treated-MCF 7 untreated) [2, 6]: -7.64 fold; PR Fold Change (MCF 7 treated-MCF 7 untreated) [2, 6]: 0.035 fold; PTEN Fold Change (MCF 7 treated-MCF 7 untreated) [2, 6]: 1.635 fold; RAS Fold Change (MCF 7 treated-MCF 7 untreated) [2, 6]: −5.92 fold; p19 Arf Fold Change (MCF 7 treated-MCF 7 untreated) [2, 6]: 3.24 fold; p21 Fold Change (MCF 7 treated-MCF 7 untreated) [2, 6]: 0.935 fold; p53 Fold Change (MCF 7 treated-MCF 7 untreated) [2, 6]: 3.025 fold; pRB Fold Change (MCF 7 treated-MCF 7 untreated) [2, 6]: 1.51 fold; solubility in CHCl3, CCl4, CH3CN, H2O, ethanol, and methanol [3]: insoluble; solubility in DMSO and DHF/THF [3]: soluble; IC50 [4]: 2.821 ± 0.008 µg/mL (≈ 13.5 µM); IC50 [5]: 2.82 to 14.2 µg/mL (≈ 13.5 to 68.1 µM)
2 | NC(=S)N[N-][CH+]c1ccc([N+](=O)[O-])cc1 [4-NBTSc, 4-Nitrobenzaldehyde thiosemicarbazone] | > 80 | 3.11 ± 0.01 | 2.86 ± 0.455 | 4.13 ± 0.02 | 1.825 ± 0.025 | 1.85 ± 0.04 | 2.19 ± 0.02 | 2.14 ± 0.03 | 3.92 ± 0.045 | 2.35 ± 0.025 | 6.09 ± 0.02 | 1.15 ± 0.02 | 5.09 ± 0.02 | 3.94 ± 0.02 | 0.995 ± 0.025 | 4.12 ± 1.51 | 4.185 ± 0.025 | 3.81 ± 0.02 | 1.02 | 1.06 | BRCA2 Fold Change (MCF 7 treated-MCF 7 untreated) [2, 6]: 2.19 fold; Bax Fold Change (MCF 7 treated-MCF 7 untreated) [2, 6]: 1.1 fold; Caspase-3 Fold Change (MCF 7 treated-MCF 7 untreated) [2, 6]: 1.25 fold; Dmp1 Fold Change (MCF 7 treated-MCF 7 untreated) [2, 6]: -0.3 fold; ER Fold Change (MCF 7 treated-MCF 7 untreated) [2, 6]: -2.7 fold; Hdm2 Fold Change (MCF 7 treated-MCF 7 untreated) [2, 6]: -3.32 fold; Myc Fold Change (MCF 7 treated-MCF 7 untreated) [2, 6]: -5.1 fold; PR Fold Change (MCF 7 treated-MCF 7 untreated) [2, 6]: -0.05 fold; PTEN Fold Change (MCF 7 treated-MCF 7 untreated) [2, 6]: 2.945 fold and 2.95 fold; p19 Arf Fold Change (MCF 7 treated-MCF 7 untreated) [2, 6]: -0.34 fold; p21 Fold Change (MCF 7 treated-MCF 7 untreated) [2, 6]: 1.93 fold; p53 Fold Change (MCF 7 treated-MCF 7 untreated) [2, 6]: 2.025 fold; pRB Fold Change (MCF 7 treated-MCF 7 untreated) [2, 6]: 2.21 fold; solubility in CHCl3, CCl4, CH3CN, H2O, ethanol, and methanol [3]: insoluble; solubility in DMSO and DHF/THF [3]: soluble; IC50 [4]: 7.102 ± 0.01 µg/mL (≈ 31.7 µM); IC50 [5]: 2.8 to 7.59 µg/mL (≈ 12.5 to 33.8 µM)
